# In patent US6680330B2, “Rapamycin dialdehydes” (Wyeth, priority 2001, dated 2004):
# Tests used:
# Format in all cases: cell-based
# SH-SY5Y cells = test: Neurite outgrowth (neuroregeneration) test in SH-SY5Y cells; conditions: aphidicolin 5 days, mean ± SEM
# Source text: The neuroregeneration activity for the compounds of this invention was confirmed in a standard pharmacological test procedure by evaluating rapamycin dialdehyde (Example 1) and rapamycin 29-enol (Example 2), as representative compounds of this invention, against SH-SY5Y cells in vitro [Gold et al., Exp Neurol 147: 269-278, 1997]. Briefly, SH-SY5Y cells were placed in 6-well plate treated with aphidicolin for 5 days followed by the test compounds using 6-well plates. For controls, wells were untreated, or treated with nerve growth factor (NGF) alone. Test wells were treated with NGF plus Example 1 and Example 2, or rapamycin. Cells were photographed at 168 hours. Analysis of neuritic lengths was performed on photographic prints using a Houston Instrument HI-PAD digitizing tablet connected to an IBM XT computer with appropriate software (Bioquant IV, R&M Biometrics, Nashville, Tenn.). Mean values for axonal areas were compared using by ANOVA (STATVIEW, Abacus Concepts, Inc., Berkeley, Calif.). The following table summarizes the results that were obtained.
# [1] = system: 3T3 (ovarian) tumor cell line; test: Antineoplastic activity, tumor cell growth inhibition (sulforhodamine B), 3T3; conditions: 48 hours; for Antineoplastic Activity IC50: 3T3 cells
# Source text: (§1) Antineoplastic activity for the compounds of this invention was confirmed by evaluating the antineoplastic activity of representative compounds of this invention (Examples 1-5) against six tumor cell lines in vitro. Briefly, tumor cells from six cell lines were placed in wells of a 96 well microtiter plate. The following tumor cell lines were used: 3T3 (ovarian), 3T3/H2N (ovarian—resistant to cis-platin), A431 (vulva epidermoid origin), SW620 (colon), SKBR3 (breast), and MDA-435 (breast). The tumors cells were grown in the presence of serial dilutions of the compound to be evaluated for 48 hours, and cell growth determined using a colorimetric procedure (sulforhrodamine B). The inhibition of growth was calculated compared to the number of cells at the time of test compound addition.
# [2] = system: 3T3/H2N (ovarian—resistant to cis-platin) tumor cell line; test: Antineoplastic activity, tumor cell growth inhibition (sulforhodamine B), 3T3/H2N; conditions: 3T3/H2N cells, 48 hours
# Source text: as §1
# [3] = system: A431 (vulva epidermoid origin) tumor cell line; test: Antineoplastic activity, tumor cell growth inhibition (sulforhodamine B), A431; conditions: 48 hours; for Antineoplastic Activity IC50: A431 cells
# Source text: as §1
# [4] = system: SKBR3 (breast) tumor cell line; test: Antineoplastic activity, tumor cell growth inhibition (sulforhodamine B), SKBR3; conditions: 48 hours; for Antineoplastic Activity IC50: SKBR3 cells
# Source text: as §1
# [5] = system: MDA-435 (breast) tumor cell line; test: Antineoplastic activity, tumor cell growth inhibition (sulforhodamine B), MDA-435; conditions: MDA435 cells, 48 hours
# Source text: as §1
# [6] = system: SW620 (colon) tumor cell line; test: Antineoplastic activity, tumor cell growth inhibition (sulforhodamine B), SW620; conditions: 48 hours; for Antineoplastic Activity IC50: SW620 cells
# Source text: as §1
Antineoplastic Activity IC50 [3] [µg/mL],Antineoplastic Activity IC50 [4] [µg/mL],Antineoplastic Activity IC50 [5] [µg/mL],Antineoplastic Activity IC50 [6] [µg/mL],"IC50 ([3]; Homo sapiens, A-431, A431 cells) [µg/mL]","IC50 ([4]; Homo sapiens, SK-BR-3, SKBR3 cells) [µg/mL]",IC50 [5] [µg/mL],"IC50 ([6]; Homo sapiens, SW-620, SW620 cells) [µg/mL]",Compound,Mean Neurite Length after 168 h (SH-SY5Y cells; test compound plus NGF),Antineoplastic Activity IC50 [1] [µg/mL],Antineoplastic Activity IC50 [2] [µg/mL],"IC50 ([1]; Mus musculus, NIH3T3, 3T3 cells) [µg/mL]",IC50 [2] [µg/mL],Mean Neurite Length after 168 h (SH-SY5Y cells; NGF alone)
–,–,–,–,0.91,0.52,1.23,1.41,"CO[C@@H](C[C@@H]1CC[C@@H](C)[C@](O)(C(=O)C(=O)N2CCCC[C@H]2C(=O)OC(CC(=O)[C@H](C)/C=C(\C)[C@@H](O)[C@@H](OC)C(=O)[C@H](C)C[C@H](C)/C=C/C=O)[C@H](C)C[C@@H]2CC[C@@H](O)[C@H](OC)C2)O1)/C(C)=C/C=O (stereo partly drawn) [Example I, Rapamycin Dialdehyde]",229.8 ± 9.5 (n = 141) μm,–,–,0.72,0.68,–
>5,2.69,>5,>5,–,–,–,–,42-O-(2-Hydroxy)Ethyl Rapamycin 29-enol [Example V],–,>5,4.96,–,–,–

# Second part, the compound before the results:
Compound,Antineoplastic Activity IC50 [3] [µg/mL],Antineoplastic Activity IC50 [4] [µg/mL],Antineoplastic Activity IC50 [5] [µg/mL],Antineoplastic Activity IC50 [6] [µg/mL],"IC50 ([3]; Homo sapiens, A-431, A431 cells) [µg/mL]","IC50 ([4]; Homo sapiens, SK-BR-3, SKBR3 cells) [µg/mL]",IC50 [5] [µg/mL],"IC50 ([6]; Homo sapiens, SW-620, SW620 cells) [µg/mL]",Mean Neurite Length after 168 h (SH-SY5Y cells; test compound plus NGF),Antineoplastic Activity IC50 [1] [µg/mL],Antineoplastic Activity IC50 [2] [µg/mL],"IC50 ([1]; Mus musculus, NIH3T3, 3T3 cells) [µg/mL]",IC50 [2] [µg/mL],Mean Neurite Length after 168 h (SH-SY5Y cells; NGF alone)
Rapamycin 29-Enol [Example II],>5,>5,>5,>5,–,–,–,–,239.7 ± 10.0 (n = 155) μm,>5,>5,–,–,–
"NGF: nerve growth factor, used alone as control and together with test compounds",–,–,–,–,–,–,–,–,–,–,–,–,–,196.5 ± 7.7 (n = 112) μm
42-O-(2-Hydroxy)Ethyl Rapamycin Dialdehyde [IV],2.64,0.36,1.1,3.04,–,–,–,–,–,1.5,0.72,–,–,–
